US20240336612A1, “BRM Targeting Compounds And Associated Methods Of Use” (Prelude Therapeutics Incorporated, priority 2021, published 2024)

Legend:
SMARCA2 = target: T1, SMARCA2 (Homo sapiens, UniProt P51531); test: SMARCA2 HiBiT degradation assay in HeLa cells; format: cell-based; details: 18 hours incubation; for DC50: read-out: DC50 (SM2-HeLa), SMARCA2 degradation potency; for Dmax: read-out: Dmax % (SM2-HeLa), maximum SMARCA2 degradation within the concentrations tested
T1 construct: SMARCA2-HiBiT knock-in Hela monoclonal cell (CS302366); host or cells: HeLa (HiBiT knock-in monoclonal line)
T1 sequence (P51531 whole entry): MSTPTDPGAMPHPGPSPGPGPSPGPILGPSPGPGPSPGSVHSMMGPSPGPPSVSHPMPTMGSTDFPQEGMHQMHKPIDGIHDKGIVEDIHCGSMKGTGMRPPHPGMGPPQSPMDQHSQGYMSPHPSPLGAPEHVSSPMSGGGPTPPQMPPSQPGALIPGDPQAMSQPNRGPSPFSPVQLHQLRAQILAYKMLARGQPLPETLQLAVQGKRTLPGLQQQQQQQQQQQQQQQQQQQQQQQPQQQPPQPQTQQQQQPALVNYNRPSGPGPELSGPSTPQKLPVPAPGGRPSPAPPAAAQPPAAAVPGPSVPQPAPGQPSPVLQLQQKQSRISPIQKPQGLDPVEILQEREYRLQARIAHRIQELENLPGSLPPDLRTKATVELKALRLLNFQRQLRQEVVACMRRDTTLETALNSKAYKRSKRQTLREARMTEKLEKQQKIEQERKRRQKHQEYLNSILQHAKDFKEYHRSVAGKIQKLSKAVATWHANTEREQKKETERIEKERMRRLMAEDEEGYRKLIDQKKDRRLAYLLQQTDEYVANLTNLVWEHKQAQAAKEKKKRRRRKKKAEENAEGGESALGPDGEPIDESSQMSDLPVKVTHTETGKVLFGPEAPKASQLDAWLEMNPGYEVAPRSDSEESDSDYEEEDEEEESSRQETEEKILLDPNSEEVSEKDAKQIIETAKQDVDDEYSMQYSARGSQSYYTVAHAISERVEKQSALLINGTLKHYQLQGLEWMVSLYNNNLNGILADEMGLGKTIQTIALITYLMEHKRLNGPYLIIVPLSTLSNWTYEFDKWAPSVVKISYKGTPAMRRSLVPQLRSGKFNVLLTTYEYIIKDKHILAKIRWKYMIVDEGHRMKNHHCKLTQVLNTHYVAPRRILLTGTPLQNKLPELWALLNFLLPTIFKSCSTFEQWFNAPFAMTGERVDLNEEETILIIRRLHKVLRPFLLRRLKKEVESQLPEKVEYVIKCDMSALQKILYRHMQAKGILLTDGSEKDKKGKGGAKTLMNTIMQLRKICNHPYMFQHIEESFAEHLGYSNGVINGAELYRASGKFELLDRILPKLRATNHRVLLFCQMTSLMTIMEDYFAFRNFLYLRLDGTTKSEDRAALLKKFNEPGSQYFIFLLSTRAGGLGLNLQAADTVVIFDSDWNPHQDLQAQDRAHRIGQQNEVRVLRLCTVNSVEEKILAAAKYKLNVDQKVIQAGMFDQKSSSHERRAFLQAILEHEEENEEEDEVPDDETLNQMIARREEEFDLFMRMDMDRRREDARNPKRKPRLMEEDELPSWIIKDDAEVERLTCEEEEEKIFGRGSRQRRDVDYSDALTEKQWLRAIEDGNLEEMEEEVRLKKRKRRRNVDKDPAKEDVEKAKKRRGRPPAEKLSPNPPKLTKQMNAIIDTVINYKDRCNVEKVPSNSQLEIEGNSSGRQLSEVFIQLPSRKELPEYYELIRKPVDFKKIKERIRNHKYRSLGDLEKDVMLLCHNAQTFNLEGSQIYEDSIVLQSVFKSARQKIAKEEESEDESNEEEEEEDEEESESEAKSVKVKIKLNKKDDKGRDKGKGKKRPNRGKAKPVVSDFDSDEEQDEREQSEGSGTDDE
Method: (§1) SMARCA2 HiBiT and SMARCA4 HiBiT Degradation Assay (cellular)
(§2) Preparation of SMARCA2/4-HiBiT Knock-In Cells
(§3) SMARCA2-HiBiT knock-in Hela monoclonal cell (CS302366) and SMARCA4-HiBiT knock-in Hela monoclonal cell (CS3023226) were purchased from Promega. The heterozygous HiBiT-knock-in was confirmed by sanger sequence in both SMARCA2-HiBiT and SMARCA4-HiBiT monoclonal cells.
(§4) SMARCA2 HiBiT and SMARCA4 HiBiT Degradation Assay in HeLa Cells
(§5) Dispense 10 μL aliquot of prepared Hela-SMARCA2-HiBiT or Hela-SMARCA4-HiBiT cells (1:1 ratio of cells:Trypan Blue (#1450013, Bio-Rad)) onto cell counting slide (#145-0011, Bio-Rad) and obtain cell density and cell viability using cell counter (TC20, Bio-Rad). Remove appropriate volume of resuspended cells from culture flask to accommodate 2500 cells/well @ 20 μL/well. Transfer Hela-HiBiT cells to 50 ml conical (#430290, Corning). Spin down at 1000 rpm for 5 min using tabletop centrifuge (SPINCHRON 15, Beckman). Discard supernatant and resuspend cell pellet in modified EMEM (#30-2003, ATCC) cell culture media containing 10% FBS (F2422-500ML, Sigma), and 1× Penicillin/Streptomycin (200 g/l) (30-002-CI, Corning) to a cell density of 125,000 cells/ml. Dispense 20 μL of resuspended Hela-HiBit cells per well in 384-well TC treated plate (#12-565-343, Thermo Scientific) using standard cassette (#50950372, Thermo Scientific) on Multidrop Combi (#5840310, Thermo Scientific) inside laminar flow cabinet. Dispense test compounds onto plates using digital liquid dispenser (D300E, Tecan). Incubate plates in humidified tissue culture incubator @37° C. for 18 hours. Add 20 ul of prepared Nano-Glo® HiBiT Lytic detection buffer (N3050, Promega) to each well of 384-well plate using small tube cassette (#24073295, Thermo Scientific) on Multidrop Combi, incubate @ RT for 30-60 min. Read plates on microplate reader (Envision 2105, PerkinElmer) using 384 well Ultra-Sensitive luminescence mode. Raw data files and compound information reports are swept into centralized data lake and deconvoluted using automated scripts designed by TetraScience, Inc. Data analysis, curve-fitting and reporting done in Dotmatics Informatics Suite using Screening Ultra module.
(§6) The results are shown below in Table 4 for the HiBiT assay. In Table 4, the DC50/Dmax% (SM2-HeLa) refers to SMARCA2 degradation potency/maximum SMARCA2 degradation within the concentrations tested in HeLa HiBiT assay. In Table 4, the DC50/Dmax% (SM4-HeLa) refers to SMARCA4 degradation potency/maximum SMARCA4 degradation within the concentrations tested in HeLa HiBiT assay.

SMARCA4 = target: T2, SMARCA4 (Homo sapiens, UniProt P51532); test: SMARCA4 HiBiT degradation assay in HeLa cells; format: cell-based; details: 18 hours incubation; for DC50: read-out: DC50 (SM4-HeLa), SMARCA4 degradation potency; for Dmax: read-out: Dmax % (SM4-HeLa), maximum SMARCA4 degradation within the concentrations tested
T2 construct: SMARCA4-HiBiT knock-in Hela monoclonal cell (CS3023226); host or cells: HeLa (HiBiT knock-in monoclonal line)
T2 sequence (P51532 whole entry): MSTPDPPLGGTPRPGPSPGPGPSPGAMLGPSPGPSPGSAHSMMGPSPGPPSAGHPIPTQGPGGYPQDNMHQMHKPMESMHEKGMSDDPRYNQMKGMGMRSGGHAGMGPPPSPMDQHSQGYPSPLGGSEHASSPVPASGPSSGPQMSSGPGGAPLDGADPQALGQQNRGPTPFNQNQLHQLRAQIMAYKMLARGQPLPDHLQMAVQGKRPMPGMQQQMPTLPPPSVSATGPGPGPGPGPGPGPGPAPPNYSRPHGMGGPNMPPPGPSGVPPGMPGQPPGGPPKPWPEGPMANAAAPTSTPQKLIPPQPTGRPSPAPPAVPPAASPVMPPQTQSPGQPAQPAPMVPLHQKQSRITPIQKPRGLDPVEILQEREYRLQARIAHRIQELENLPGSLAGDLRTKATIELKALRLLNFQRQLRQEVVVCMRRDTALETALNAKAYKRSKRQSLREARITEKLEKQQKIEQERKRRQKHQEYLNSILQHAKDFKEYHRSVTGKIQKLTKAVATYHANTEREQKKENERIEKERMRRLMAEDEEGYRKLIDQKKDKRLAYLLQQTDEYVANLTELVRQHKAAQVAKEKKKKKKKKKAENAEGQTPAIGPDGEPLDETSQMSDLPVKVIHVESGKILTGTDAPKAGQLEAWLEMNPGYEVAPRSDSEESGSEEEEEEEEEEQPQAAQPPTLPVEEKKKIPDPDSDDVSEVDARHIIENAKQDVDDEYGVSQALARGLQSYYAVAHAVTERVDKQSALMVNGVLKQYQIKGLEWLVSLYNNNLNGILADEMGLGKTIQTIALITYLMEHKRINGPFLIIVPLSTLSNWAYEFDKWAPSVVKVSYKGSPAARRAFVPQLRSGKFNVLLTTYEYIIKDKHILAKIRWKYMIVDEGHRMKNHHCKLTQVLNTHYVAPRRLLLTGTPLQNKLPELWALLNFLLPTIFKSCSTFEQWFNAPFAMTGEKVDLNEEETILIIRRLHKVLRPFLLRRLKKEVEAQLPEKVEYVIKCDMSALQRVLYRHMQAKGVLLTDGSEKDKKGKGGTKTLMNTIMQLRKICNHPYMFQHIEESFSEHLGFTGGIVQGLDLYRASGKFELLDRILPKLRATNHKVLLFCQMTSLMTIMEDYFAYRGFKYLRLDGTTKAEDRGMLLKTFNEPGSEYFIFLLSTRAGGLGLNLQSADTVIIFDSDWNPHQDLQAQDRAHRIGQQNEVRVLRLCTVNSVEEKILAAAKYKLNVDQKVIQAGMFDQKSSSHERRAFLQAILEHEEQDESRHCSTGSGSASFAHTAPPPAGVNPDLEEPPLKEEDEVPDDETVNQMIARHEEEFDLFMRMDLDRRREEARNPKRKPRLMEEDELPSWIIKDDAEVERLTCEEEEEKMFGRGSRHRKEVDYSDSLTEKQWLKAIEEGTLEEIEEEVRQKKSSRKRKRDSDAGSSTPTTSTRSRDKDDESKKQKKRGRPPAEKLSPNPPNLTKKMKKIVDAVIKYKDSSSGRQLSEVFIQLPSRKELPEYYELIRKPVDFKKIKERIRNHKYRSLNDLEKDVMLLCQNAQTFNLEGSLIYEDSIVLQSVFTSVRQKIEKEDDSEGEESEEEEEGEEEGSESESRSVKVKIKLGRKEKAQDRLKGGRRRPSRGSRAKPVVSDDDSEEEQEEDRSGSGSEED
Method: as §1, §2, §3, §4, §5, §6

DC50 (SMARCA2) | Dmax (SMARCA2) | DC50 (SMARCA4) | Dmax (SMARCA4) | Compound
< 100 nM | 50 to 75% | < 100 nM | > 75% | Cc1ncsc1-c1ccc([C@H](C)NC(=O)[C@@H]2C[C@@H](O)CN2C(=O)[C@@H](c2cc(OCCN3CCC(N4CCC5(CC4)CNc4nnc(-c6ccccc6O)cc4N5)CC3)no2)C(C)C)cc1 [Example 2, (2S,4R)-4-hydroxy-1-((R)-2-(3-(2-(4-(3′-(2-hydroxyphenyl)-7′,8′-dihydro-5′H-spiro[piperidine-4,6′-pyrazino[2,3-c]pyridazin]-1-yl)piperidin-1-yl)ethoxy)isoxazol-5-yl)-3-methylbutanoyl)-N-((S)-1-(4-(4-methylthiazol-5-yl)phenyl)ethyl) pyrrolidine-2-carboxamide]
< 100 nM | 50 to 75% | < 100 nM | > 75% | Cc1ncsc1-c1ccc([C@H](C)NC(=O)[C@@H]2C[C@@H](O)CN2C(=O)[C@@H](c2cc(OCCN3CCC(N4CCCC5(CNc6nnc(-c7ccccc7O)cc6N5)C4)C3)no2)C(C)C)cc1 (stereo partly drawn) [Example 4, (2S,4R)-4-hydroxy-1-((2R)-2-(3-(2-(3-(3′-(2-hydroxyphenyl)-7′,8′-dihydro-5′H-spiro[piperidine-3,6′-pyrazino[2,3-c]pyridazin]-1-yl)pyrrolidin-1-yl)ethoxy)isoxazol-5-yl)-3-methylbutanoyl)-N-((S)-1-(4-(4-methylthiazol-5-yl)phenyl)ethyl) pyrrolidine-2-carboxamide]
< 100 nM | > 75% | < 100 nM | > 75% | Cc1ncsc1-c1ccc([C@H](C)NC(=O)[C@@H]2C[C@@H](O)CN2C(=O)[C@@H](c2cc(OCCN3CCC(CN4CCCC5(CNc6nnc(-c7ccccc7O)cc6N5)C4)CC3)no2)C(C)C)cc1 (stereo partly drawn) [Example 7, (2S,4R)-4-hydroxy-1-((2R)-2-(3-(2-(4-((3′-(2-hydroxyphenyl)-7′,8′-dihydro-5′H-spiro[piperidine-3,6′-pyrazino[2,3-c]pyridazin]-1-yl)methyl)piperidin-1-yl)ethoxy)isoxazol-5-yl)-3-methylbutanoyl)-N-((S)-1-(4-(4-methylthiazol-5-yl)phenyl)ethyl) pyrrolidine-2-carboxamide]

Continued, compound first:

Compound | DC50 (SMARCA2) | Dmax (SMARCA2) | DC50 (SMARCA4) | Dmax (SMARCA4)
Cc1ncsc1-c1ccc([C@H](C)NC(=O)[C@@H]2C[C@@H](O)CN2C(=O)[C@@H](c2cc(OCCN3CCC(CN4CCC5(CC4)CNc4nnc(-c6ccccc6O)cc4N5)CC3)no2)C(C)C)cc1 [Example 8, (2S,4R)-4-hydroxy-1-((R)-2-(3-(2-(4-((3′-(2-hydroxyphenyl)-7′,8′-dihydro-5′H-spiro [piperidine-4,6′-pyrazino[2,3-c]pyridazin]-1-yl)methyl)piperidin-1-yl)ethoxy)isoxazol-5-yl)-3-methylbutanoyl)-N-((S)-1-(4-(4-methylthiazol-5-yl)phenyl)ethyl) pyrrolidine-2-carboxamide] | < 100 nM | > 75% | < 100 nM | > 75%
Cc1ncsc1-c1ccc([C@H](C)NC(=O)[C@@H]2C[C@@H](O)CN2C(=O)[C@@H](c2cc(OCCN3CCC(N4CCC5(CC4)CNc4nnc(-c6ccccc6O)cc4N5)C3)no2)C(C)C)cc1 (stereo partly drawn) [Example 6, (2S,4R)-4-hydroxy-1-((2R)-2-(3-(2-(3-(3′-(2-hydroxyphenyl)-7′,8′-dihydro-5′H-spiro [piperidine-4,6′-pyrazino[2,3-c]pyridazin]-1-yl)pyrrolidin-1-yl)ethoxy)isoxazol-5-yl)-3-methylbutanoyl)-N-((S)-1-(4-(4-methylthiazol-5-yl)phenyl)ethyl) pyrrolidine-2-carboxamide] | 1000 to 10000 nM | ≤ 50% | 100 to 1000 nM | > 75%
Cc1ncsc1-c1ccc([C@H](C)NC(=O)[C@@H]2C[C@@H](O)CN2C(=O)[C@@H](c2cc(OCCN3CCC(N4CCC5(CC4)CNc4nnc(-c6ccccc6O)cc45)C3)no2)C(C)C)cc1 (stereo partly drawn) [Example 1, (2S,4R)-4-hydroxy-1-((2R)-2-(3-(2-(3-(3′-(2-hydroxyphenyl)-6′,7′-dihydrospiro[piperidine-4,5′-pyrrolo[2,3-c]pyridazin]-1-yl)pyrrolidin-1-yl)ethoxy)isoxazol-5-yl)-3-methylbutanoyl)-N-((S)-1-(4-(4-methylthiazol-5-yl)phenyl)ethyl) pyrrolidine-2-carboxamide] | < 100 nM | > 75% | ≥ 10000 nM | ≤ 50%
Cc1ncsc1-c1ccc([C@H](C)NC(=O)[C@@H]2C[C@@H](O)CN2C(=O)[C@@H](c2cc(OCCN3CCC(CN4CCC5(CC4)CNc4nnc(-c6ccccc6O)cc45)CC3)no2)C(C)C)cc1 [Example 3, (2S,4R)-4-hydroxy-1-((R)-2-(3-(2-(4-((3′-(2-hydroxyphenyl)-6′,7′-dihydrospiro[piperidine-4,5′-pyrrolo[2,3-c]pyridazin]-1-yl)methyl)piperidin-1-yl)ethoxy)isoxazol-5-yl)-3-methylbutanoyl)-N-((S)-1-(4-(4-methylthiazol-5-yl)phenyl)ethyl) pyrrolidine-2-carboxamide] | < 100 nM | 50 to 75% | ≥ 10000 nM | ≤ 50%
Cc1ncsc1-c1ccc([C@H](C)NC(=O)[C@@H]2C[C@@H](O)CN2C(=O)[C@@H](c2cc(OCCN3CCC(N4CCCC5(CNc6nnc(-c7ccccc7O)cc6N5)C4)CC3)no2)C(C)C)cc1 (stereo partly drawn) [Example 5, (2S,4R)-4-hydroxy-1-((2R)-2-(3-(2-(4-(3′-(2-hydroxyphenyl)-7′,8′-dihydro-5′H-spiro[piperidine-3,6′-pyrazino[2,3-c]pyridazin]-1-yl)piperidin-1-yl)ethoxy)isoxazol-5-yl)-3-methylbutanoyl)-N-((S)-1-(4-(4-methylthiazol-5-yl)phenyl)ethyl) pyrrolidine-2-carboxamide] | < 100 nM | 50 to 75% | < 100 nM | > 75%
